Test [1] in a line: Antioxidant activity, pholasin ABEL chemiluminescence test, hydroxyl radicals. It is filed as biochemical. The procedure: (§1) To determine the capacity of Goldenrod for trapping free radicals (hydroxyls, halogenated derivatives, peroxynitrites and superoxide radicals), i.e. its antioxidant capacity, chemiluminescence tests dependent on pholasin ABEL®1 were used (Knight Scientific Limited) according to the manufacturer's instructions. Briefly, various concentrations of ingredients were incubated with pholasin, a well known photoprotein that emits light when it binds to free radicals. D-Mannitol, albumin, vitamin E and L-ascorbic acid were used as positive controls for determining the capacity of the extract for trapping hydroxyl radicals, halogenated derivatives, peroxynitrites and superoxides, respectively.
All the determinations were repeated 5 times and the mean values were determined. The antioxidant capacity of the ingredient is expressed as the percentage reduction of the luminescence peak of Pholasin observed during the assay in the presence and in the absence of the active ingredient ±SD, with the untreated control represented at 0%.

Test [2] is described as follows: Antioxidant activity, pholasin ABEL chemiluminescence test, superoxides. It is filed as biochemical. The procedure: as §1, with “respectively. […] The antioxidant capacity of the ingredient is expressed as the percentage reduction of the luminescence peak of Pholasin observed during the assay in the presence and in the absence of the active ingredient ±SD, with the untreated control represented at 0%.” for “respectively.”

For a further test, the target named is T1, MMP3 (Homo sapiens, UniProt P08254).
T1 construct: purchased Biomol SE-109
The test can be described thus: MMP3 activity by fluorometric assay. Format: biochemical. Conditions: 5 mM; percentage activity relative to untreated control (100%). The procedure: (§2) To evaluate the effect of Goldenrod on the activity of MMP3 and MMP9, the enzymes (Biomol SE-109 and SE-244, respectively) were incubated with different concentrations of Goldenrod, each concentration in quintuplicate. The enzymatic reaction was induced by adding the fluorescent substrate specific to each MMP enzyme, dissolved in DMSO (Bachem H-2300, M-2055). The enzymatic reaction was monitored by spectrophotometry for one hour and the fluorescence was measured after excitation/emission at wavelengths of 360/460 nm for MMP3, or 320/405 nm for MMP9. The results are expressed as the mean of the replicates ±SD and are shown in […] activity of the MMPs relative to the untreated control, which represents 100%. As control, EDTA was used for inhibiting the activity of the MMPs.

The next test has as its target T2, MMP9 (Homo sapiens, UniProt P14780).
T2 construct: purchased Biomol SE-244
Briefly: MMP9 activity by fluorometric assay. It is filed as biochemical. To be noted: 5 mM; percentage activity relative to untreated control (100%). The procedure: as §2

The subject of test [3] is Primary human keratinocytes (KC). The test can be described thus: Primary human keratinocytes (KC) under Paraquat stress: cell counts and qPCR of MMP1, p16INK4a. Format: cell-based. To be noted: for Mean number of cells counted, corrected for the cell division factor: 37500 cells seeded on day 0. The procedure:
Primary human keratinocytes derived from neonatal foreskin of individual donors (KC) were purchased from CellSystems (Troisdorf, Germany) and cultured in a KC growth medium (KGM, Clonetics, Gaithersburg, USA) supplemented with 0.1 ng/ml of recombinant human EGF, 5 μg/ml insulin, 0.5 μg/ml of hydrocortisone, 0.4% of bovine pituitary extract, 50 μg/ml of gentamicin and 50 ng/ml of amphotericin B. The RNA was isolated using the RNeasy 96 system ([…]), and 900 ng of total RNA was reverse-transcribed with the iScript cDNA Synthesis Kit (Biorad). qPCR was performed using the LightCycler 480 and the LightCycler 480 SYBR Green I Master (Roche, Basle, Switzerland). Expression of the target genes was normalized relative to expression of β-2 microglobulin. The sequences of the primers are as follows (5′-3′): B2Mf […] (SEQ ID NO:11); B2Mr: […] (SEQ ID NO:12);
The cells are seeded for the stress experiments on day 0 at 1500 cells/cm^2 and treated on days 2, 5 and 6 with Paraquat (PQ) (80 μm) for 24 hours. Treatment with Goldenrod was carried out on days 1 and 4 on untreated cells or cells treated with Paraquat.
Background: In qPCR the cycle at which signal appears reflects the starting amount.

The structures appear in SMILES notation.

T1 sequence (P08254 100-272 limits assumed): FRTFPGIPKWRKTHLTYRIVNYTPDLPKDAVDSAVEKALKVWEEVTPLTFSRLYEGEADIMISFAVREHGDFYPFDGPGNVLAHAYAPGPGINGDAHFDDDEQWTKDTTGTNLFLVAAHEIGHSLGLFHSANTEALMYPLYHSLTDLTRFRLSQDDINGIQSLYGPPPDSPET
T2 sequence (P14780 107-444 limits assumed): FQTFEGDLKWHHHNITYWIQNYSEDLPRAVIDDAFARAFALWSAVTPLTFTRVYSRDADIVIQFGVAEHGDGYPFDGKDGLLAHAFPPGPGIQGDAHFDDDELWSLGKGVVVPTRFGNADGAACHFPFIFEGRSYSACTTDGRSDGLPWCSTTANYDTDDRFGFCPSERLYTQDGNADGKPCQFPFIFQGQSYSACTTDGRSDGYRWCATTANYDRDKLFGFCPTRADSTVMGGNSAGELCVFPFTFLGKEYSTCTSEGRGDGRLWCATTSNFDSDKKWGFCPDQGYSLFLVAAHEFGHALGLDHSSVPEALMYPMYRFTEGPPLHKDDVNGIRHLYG

In the case of `OC[C@@H](O)[C@@H](O)[C@H](O)[C@H](O)CO` [D-Mannitol], the Mean % inhibition in test [1] (0.8 mM) was determined as 59.9 ± 3.6%; in test [1] (1 mM), 76.1 ± 14%; in test [1] (2 mM) it was 82.6 ± 14.8%; in test [1] (4 mM), 92.6 ± 4.7%; in test [1] (6 mM), 95.1 ± 0.3%.
Turning to `O=C1O[C@H]([C@@H](O)CO)C(O)=C1O` [L-ascorbic acid], the Mean % inhibition in test [2] (10 μmol/L) stood at 26.4 ± 3.5%; in test [2] (20 μmol/L) it was 43.9 ± 1.4%; in test [2] (40 μmol/L), 64.8 ± 0.8%; in test [2] (60 μmol/L), 75.3 ± 1%; in test [2] (80 μmol/L), 82.4 ± 1.8%.
On to `O=C(O)CN(CCN(CC(=O)O)CC(=O)O)CC(=O)O` [EDTA], for which the “Enzyme activity MMP3” value on MMP3 is listed as 4.3 ± 5.3%. Moreover, the “Enzyme activity MMP9” value at MMP9 was determined as 0 ± 0.9%.
As to `C[n+]1ccc(-c2cc[n+](C)cc2)cc1` [Paraquat], the “Mean number of cells counted, corrected for the cell division factor” value in test [3] (D3, single treatment) is on record as 405,000 cells; in test [3] (D7, single treatment), 546,666 cells. The “Expression of MMP1” value in test [3] (treatment with Paraquat alone) is “induces”. For the same compound, in test [3] (treatment with Paraquat alone), the “Expression of p16INK4a” value is “induces”.

These data come from patent publication US10206867B2, “Alcoholic extract of aerial parts of Solidago virgaurea subsp. alpestris, method of production thereof, and cosmetic or dermatological composition containing it” (CHANEL PARFUMS BEAUTE, priority 2015, dated 2019).
